Assay results as given in patent US9675073B2, “Insecticidal compounds based on N-arylsulfanylmethylcarboxamidearylthiosulfonamides derivatives” (Syngenta Participations AG, priority 2012, dated 2017).
Read-outs that look alike come from different tables or passages of the source.

Tests used:
Format in all cases: in vivo
[1] = tested on: Heliothis virescens (Tobacco Budworm); assay: Heliothis virescens eggs on artificial diet; conditions: 120 h, read-out: egg or larval mortality
Protocol: Heliothis virescens (Tobacco Budworm):
Eggs (0-24 h old) were placed in 24-well microtiter plates on artificial diet and treated with aqueous test solutions prepared from 10,000 ppm DMSO stock solutions by pipetting. The samples were assessed for egg and larval mortality 5 days after infestation.

[2] = tested on: Spodoptera littoralis (Egyptian Cotton Leaf Worm); assay: Spodoptera littoralis cotton leaf disc spray test, L1 larvae; conditions: foliar, 72 h
Protocol: Spodoptera littoralis (Egyptian Cotton Leaf Worm)
(§1) Cotton leaf discs were placed on agar in 24-well microtiter plates and sprayed with aqueous test solutions prepared from 10,000 ppm DMSO stock solutions. After drying the leaf discs were infested with five L1 larvae. The samples were assessed for mortality 3 days after infestation.

[3] = tested on: Plutella xylostella (Diamond Back Moth); assay: Plutella xylostella L2 larvae on treated artificial diet; conditions: 120 h
Protocol: 24-well microtiter plates with artificial diet were treated with aqueous test solutions prepared from 10,000 ppm DMSO stock solutions by pipetting. After drying, the plates were infested with L2 larvae (10 to 15 per well). The samples were assessed for mortality 5 days after infestation.

[4] = tested on: Diabrotica balteata, (Corn Root Worm); assay: Diabrotica balteata L2 larvae on sprayed maize sprouts; conditions: 96 h, application rate 200 ppm, 4 days after infestation
Protocol: Maize sprouts, placed on an agar layer in 24-well microtiter plates were treated with aqueous test solutions prepared from 10,000 ppm DMSO stock solutions by spraying. After drying, the plates were infested with L2 larvae (6 to 10 per well). The samples were assessed for mortality 4 days after infestation.

[5] = tested on: Diabrotica balteata (Corn Root Worm); assay: Diabrotica balteata L2 larvae on treated artificial diet; conditions: 120 h, application rate 200 ppm, 5 days after infestation
Protocol: 24-well microtiter plates with artificial diet were treated with aqueous test solutions prepared from 10,000 ppm DMSO stock solutions by pipetting. After drying, the plates were infested with L2 larvae (6 to 10 per well). The samples were assessed for mortality 5 days after infestation.

[6] = tested on: Myzus persicae (Green Peach Aphid); assay: Myzus persicae sucrose solution feeding test through Parafilm; conditions: 120 h, test rate 12 ppm, 5 days after infestation
Protocol: Myzus persicae (Green Peach Aphid)
Test compounds from 10,000 ppm DMSO stock solutions were applied by pipette into 24-well microtiter plates and mixed with sucrose solution. The plates were closed with a stretched Parafilm. A plastic stencil with 24 holes was placed onto the plate and infested pea seedlings were placed directly on the Parafilm. The infested plate was closed with a gel blotting paper and another plastic stencil and then turned upside down. The samples were assessed for mortality 5 days after infestation.

[7] = tested on: Thrips tabaci (Onion Thrips); assay: Thrips tabaci sunflower leaf disc spray test; conditions: foliar, 144 h, application rate 200 ppm, mixed ages on sunflower leaf discs, 6 days after infestation
Protocol: Thrips tabaci (Onion Thrips):
as §1, with “Sunflower” for “Cotton”, “a thrips population of mixed ages.” for “five L1 larvae.”, “6” for “3”

[8] = tested on: Tetranychus urticae (Two-Spotted Spider Mite); assay: Tetranychus urticae bean leaf disc spray test; conditions: foliar, 192 h, application rate 200 ppm, mixed population (mobile stages) on bean leaf discs, 8 days after infestation
Protocol: Tetranychus urticae (Two-Spotted Spider Mite):
Bean leaf discs on agar in 24-well microtiter plates were sprayed with aqueous test solutions prepared from 10,000 ppm DMSO stock solutions. After drying the leaf discs were infested with a mite population of mixed ages. The samples were assessed for mortality on mixed population (mobile stages) 8 days after infestation.

[9] = application rate 200 ppm, eggs on artificial diet, 5 days after infestation

CC(C)C(=O)NCSc1ccc(C2=CSC(c3cc(Cl)cc(Cl)c3)(C(F)(F)F)C2)cc1Br (stereo not shown) [Compound C2, N-[[2-bromo-4-[2-(3,5-dichlorophenyl)-2-(trifluoromethyl)-3H-thiophen-4-yl]phenyl]sulfanylmethyl]-2-methyl-propanamide]
≥ 80%: mortality at 200 ppm [1, 9]

CC1(C(=O)NCSc2ccc(C3=NOC(c4cc(Cl)cc(Cl)c4)(C(F)(F)F)C3)cc2Br)CC1 (stereo not shown) [Compound A4, N-[[2-bromo-4-[5-(3,5-dichlorophenyl)-5-(trifluoromethyl)-4H-isoxazol-3-yl]phenyl]sulfanylmethyl]-1-methyl-cyclopropanecarboxamide]
≥ 80%: mortality at 200 ppm [1]

CC(=O)NCSc1ccc(C2=CSC(c3cc(Cl)cc(Cl)c3)(C(F)(F)F)C2)cc1Br (stereo not shown) [Compound C1, N-[[2-bromo-4-[2-(3,5-dichlorophenyl)-2-(trifluoromethyl)-3H-thiophen-4-yl]phenyl]sulfanylmethyl]acetamide]
≥ 80%: mortality at 200 ppm ([2]; application rate 200 ppm, L1 larvae on cotton leaf discs, 3 days after infestation, read-out: mortality) | mortality at 200 ppm [1, 9] | mortality at 200 ppm ([3]; application rate 200 ppm, L2 larvae on artificial diet, 5 days after infestation, read-out: mortality) | mortality at 200 ppm [4]

O=C(NCSc1ccc(C2=NOC(c3cc(Cl)cc(Cl)c3)(C(F)(F)F)C2)cc1Br)c1ccccc1 (stereo not shown) [Compound A2, N-[[2-bromo-4-[5-(3,5-dichlorophenyl)-5-(trifluoromethyl)-4H-isoxazol-3-yl]phenyl]sulfanylmethyl]benzamide]
≥ 80%: mortality at 200 ppm [1] | mortality at 200 ppm [3]

O=C(NCSc1ccc(C2=NOC(c3cc(Cl)cc(Cl)c3)(C(F)(F)F)C2)cc1Br)C1CC1 (stereo not shown) [Compound A3, N-[[2-bromo-4-[5-(3,5-dichlorophenyl)-5-(trifluoromethyl)-4H-isoxazol-3-yl]phenyl]sulfanylmethyl]cyclopropanecarboxamide]
≥ 80%: mortality at 200 ppm [2] | mortality at 200 ppm [1] | mortality at 200 ppm [3] | mortality at 200 ppm [5] | mortality at 12 ppm [6] | mortality at 200 ppm [7] | mortality at 200 ppm [8]

CC(=O)NCSc1ccc(C2=NOC(c3cc(Cl)cc(Cl)c3)(C(F)(F)F)C2)cc1Br (stereo not shown) [Compound A1, N-[[2-bromo-4-[5-(3,5-dichlorophenyl)-5-(trifluoromethyl)-4H-isoxazol-3-yl]phenyl]sulfanylmethyl]acetamide]
≥ 80%: mortality at 200 ppm [2] | mortality at 200 ppm [1] | mortality at 200 ppm [3] | mortality at 200 ppm [5] | mortality at 12 ppm [6] | mortality at 200 ppm [7] | mortality at 200 ppm [8]
